Measurements from PMC9886283, “Specific gene module pair-based target identification and drug discovery” (Frontiers in Pharmacology, 2023).
Counter-ions that a name gives are not always drawn. Like-named read-outs stand apart in the source and are kept apart here.

Legend:
[1] = molecular target: PI3Kδ (Homo sapiens, UniProt O00329); assay: PI3Kδ kinase assay (ADP-Glo-based biochemical assay)
Experimental: (§1) This study aims to determine the effect of test compounds on PI3Kα/β/δ enzyme activity using ADP-Glo-based biochemical assay (Vendor: Promega, Cat#: V9102), following the manufacturer’s instruction. […] Then, the IC50s were calculated by fitting % inhibition values and the log of compound concentrations to the hill slope with the variable slope (called the variable slope model or four-parameter dose-response curve), and the log (inhibitor) vs. response curve was built by GraphPad Prism version 7.0 (GraphPad Software). Data are presented as mean ± SEM, with n = 3 for each drug dose.

[2] = molecular target: PI3Kα (Homo sapiens, UniProt P42336); assay: PI3Kα kinase assay (ADP-Glo-based biochemical assay)
Experimental: as §1

[3] = molecular target: PI3Kβ (Homo sapiens, UniProt P42338); assay: PI3Kβ kinase assay (ADP-Glo-based biochemical assay); conditions: n = 3 per dose
Experimental: as §1

[4] = system: N-methyl-D-aspartic acid (NMDA) receptor; conditions: uncompetitive, low-affinity, non-selective antagonist; ref Lipton, 2007; cited from earlier work
[5] = ADP-Glo, n = 3 per dose, read-out: IC50 PI3Kδ
[6] = ADP-Glo, n = 3 per dose, read-out: IC50 PI3Kα

PI3Kα, sequence (P42336 whole entry): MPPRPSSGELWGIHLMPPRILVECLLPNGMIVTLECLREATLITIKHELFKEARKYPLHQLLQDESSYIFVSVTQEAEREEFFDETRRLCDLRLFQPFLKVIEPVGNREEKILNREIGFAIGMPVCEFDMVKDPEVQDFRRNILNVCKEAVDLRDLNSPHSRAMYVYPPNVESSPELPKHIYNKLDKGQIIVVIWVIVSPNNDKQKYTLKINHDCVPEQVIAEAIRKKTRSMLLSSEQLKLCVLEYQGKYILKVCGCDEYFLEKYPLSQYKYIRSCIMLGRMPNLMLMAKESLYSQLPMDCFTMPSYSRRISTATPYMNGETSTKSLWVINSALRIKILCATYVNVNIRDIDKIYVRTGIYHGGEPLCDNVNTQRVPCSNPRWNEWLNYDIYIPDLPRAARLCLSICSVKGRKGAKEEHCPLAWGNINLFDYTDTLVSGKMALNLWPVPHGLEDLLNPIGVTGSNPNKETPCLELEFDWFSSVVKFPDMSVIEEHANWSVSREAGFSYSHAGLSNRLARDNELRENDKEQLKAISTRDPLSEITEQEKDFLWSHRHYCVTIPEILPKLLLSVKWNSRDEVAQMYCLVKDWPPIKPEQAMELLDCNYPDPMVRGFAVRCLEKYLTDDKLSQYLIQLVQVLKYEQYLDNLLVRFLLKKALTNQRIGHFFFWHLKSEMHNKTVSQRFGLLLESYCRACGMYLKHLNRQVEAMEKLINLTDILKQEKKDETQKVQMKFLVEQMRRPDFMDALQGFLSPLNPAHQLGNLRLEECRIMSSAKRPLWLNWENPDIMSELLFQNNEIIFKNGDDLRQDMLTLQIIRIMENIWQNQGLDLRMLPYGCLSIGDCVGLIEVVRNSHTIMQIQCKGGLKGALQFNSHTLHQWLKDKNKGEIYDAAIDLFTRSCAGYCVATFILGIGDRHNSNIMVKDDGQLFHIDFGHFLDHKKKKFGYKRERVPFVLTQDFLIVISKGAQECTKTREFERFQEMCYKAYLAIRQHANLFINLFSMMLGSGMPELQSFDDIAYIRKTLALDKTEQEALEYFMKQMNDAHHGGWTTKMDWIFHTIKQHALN
PI3Kα, sequence (P27986 whole entry partner): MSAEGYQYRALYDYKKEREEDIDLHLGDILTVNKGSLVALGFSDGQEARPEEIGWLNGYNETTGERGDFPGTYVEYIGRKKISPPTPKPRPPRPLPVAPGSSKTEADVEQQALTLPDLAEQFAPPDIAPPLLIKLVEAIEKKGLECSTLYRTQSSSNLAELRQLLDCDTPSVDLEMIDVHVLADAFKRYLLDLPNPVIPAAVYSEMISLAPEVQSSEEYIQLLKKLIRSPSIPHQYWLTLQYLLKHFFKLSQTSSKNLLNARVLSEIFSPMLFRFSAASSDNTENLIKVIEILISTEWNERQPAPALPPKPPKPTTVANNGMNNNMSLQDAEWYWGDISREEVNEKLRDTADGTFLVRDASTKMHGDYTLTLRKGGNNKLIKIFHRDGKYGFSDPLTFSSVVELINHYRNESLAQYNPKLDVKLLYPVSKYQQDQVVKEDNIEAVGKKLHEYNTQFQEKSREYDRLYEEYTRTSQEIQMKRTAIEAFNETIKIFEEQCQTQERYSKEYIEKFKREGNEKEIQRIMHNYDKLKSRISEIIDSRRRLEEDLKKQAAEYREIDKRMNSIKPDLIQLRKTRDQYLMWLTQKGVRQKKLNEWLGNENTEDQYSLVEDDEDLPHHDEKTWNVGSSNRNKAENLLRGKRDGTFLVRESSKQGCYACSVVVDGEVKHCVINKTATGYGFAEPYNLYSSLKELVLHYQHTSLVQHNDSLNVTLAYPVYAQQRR
PI3Kδ, sequence (O00329 whole entry): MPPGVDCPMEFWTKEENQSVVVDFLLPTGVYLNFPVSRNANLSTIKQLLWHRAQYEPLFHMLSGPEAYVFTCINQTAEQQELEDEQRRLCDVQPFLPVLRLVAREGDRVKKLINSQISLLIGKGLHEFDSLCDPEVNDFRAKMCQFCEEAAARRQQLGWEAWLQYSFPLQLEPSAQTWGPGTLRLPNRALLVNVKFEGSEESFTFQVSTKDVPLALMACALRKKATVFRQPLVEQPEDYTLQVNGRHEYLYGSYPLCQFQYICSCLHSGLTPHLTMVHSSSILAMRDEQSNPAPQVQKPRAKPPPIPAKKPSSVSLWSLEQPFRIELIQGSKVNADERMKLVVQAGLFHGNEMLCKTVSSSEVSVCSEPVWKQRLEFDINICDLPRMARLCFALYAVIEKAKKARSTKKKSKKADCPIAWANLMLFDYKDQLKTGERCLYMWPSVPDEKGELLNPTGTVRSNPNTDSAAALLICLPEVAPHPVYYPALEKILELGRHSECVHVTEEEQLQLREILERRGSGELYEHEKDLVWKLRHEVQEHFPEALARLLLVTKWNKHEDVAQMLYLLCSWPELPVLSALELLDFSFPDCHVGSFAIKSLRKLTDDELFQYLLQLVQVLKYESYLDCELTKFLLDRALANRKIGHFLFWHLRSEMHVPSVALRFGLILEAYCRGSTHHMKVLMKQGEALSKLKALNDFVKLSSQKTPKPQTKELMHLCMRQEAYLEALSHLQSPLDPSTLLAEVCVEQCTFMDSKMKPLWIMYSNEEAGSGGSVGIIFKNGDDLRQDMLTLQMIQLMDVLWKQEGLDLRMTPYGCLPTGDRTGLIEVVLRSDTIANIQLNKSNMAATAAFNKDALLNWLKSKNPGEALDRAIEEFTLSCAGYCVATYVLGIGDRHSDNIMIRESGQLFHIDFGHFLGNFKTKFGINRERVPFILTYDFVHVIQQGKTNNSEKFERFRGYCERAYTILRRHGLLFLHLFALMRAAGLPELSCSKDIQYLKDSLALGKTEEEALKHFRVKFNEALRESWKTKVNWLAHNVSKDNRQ
PI3Kδ, sequence (P27986 whole entry partner): as the sequence (P27986 whole entry partner) above
PI3Kβ, sequence (P42338 whole entry): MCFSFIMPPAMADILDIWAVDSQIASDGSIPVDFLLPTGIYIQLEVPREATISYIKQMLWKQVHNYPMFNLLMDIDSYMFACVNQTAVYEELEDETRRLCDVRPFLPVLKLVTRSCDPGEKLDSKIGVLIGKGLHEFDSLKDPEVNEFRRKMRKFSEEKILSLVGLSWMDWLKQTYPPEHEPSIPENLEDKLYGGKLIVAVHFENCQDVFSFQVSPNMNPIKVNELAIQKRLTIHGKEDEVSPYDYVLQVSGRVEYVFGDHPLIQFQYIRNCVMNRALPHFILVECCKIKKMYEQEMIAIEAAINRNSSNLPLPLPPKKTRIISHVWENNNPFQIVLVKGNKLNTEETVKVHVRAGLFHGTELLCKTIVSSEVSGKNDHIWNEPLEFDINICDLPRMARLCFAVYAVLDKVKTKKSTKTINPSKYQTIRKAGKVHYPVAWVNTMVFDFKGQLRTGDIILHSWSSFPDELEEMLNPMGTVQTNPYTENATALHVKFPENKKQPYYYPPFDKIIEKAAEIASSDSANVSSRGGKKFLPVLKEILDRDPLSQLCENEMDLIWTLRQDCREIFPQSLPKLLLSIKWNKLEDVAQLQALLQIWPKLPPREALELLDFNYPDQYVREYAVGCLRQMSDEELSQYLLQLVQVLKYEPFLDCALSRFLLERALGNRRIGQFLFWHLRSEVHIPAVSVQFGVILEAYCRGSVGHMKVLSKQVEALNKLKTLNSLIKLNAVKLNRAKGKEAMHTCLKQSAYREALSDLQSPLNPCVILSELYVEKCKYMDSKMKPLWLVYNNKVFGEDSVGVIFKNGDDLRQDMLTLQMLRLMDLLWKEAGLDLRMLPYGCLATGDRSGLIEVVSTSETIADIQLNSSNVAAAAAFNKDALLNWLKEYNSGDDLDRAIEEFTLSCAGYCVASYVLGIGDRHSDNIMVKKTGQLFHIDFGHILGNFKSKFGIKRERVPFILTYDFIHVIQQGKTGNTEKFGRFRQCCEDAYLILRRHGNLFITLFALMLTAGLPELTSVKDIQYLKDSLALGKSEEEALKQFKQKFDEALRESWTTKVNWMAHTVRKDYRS
PI3Kβ, sequence (P27986 whole entry partner): as the sequence (P27986 whole entry partner) above

| SMILES | IC50 [1, 5] [µM] | IC50 [2, 6] [µM] | IC50 [3] [µM] | affinity for NMDA receptor [4] | IC50 [2] [µM] | IC50 [1] [µM] |
| --- | --- | --- | --- | --- | --- | --- |
| CC(C)NCCCn1c(Sc2cc3c(cc2I)OCO3)nc2c(N)ncnc21 [PU-H71] | 20 | – | – | – | – | – |
| CO[C@H]1/C=C\C=C(/C)C(=O)NC2=CC(=O)C(NCCN(C)C)=C(C[C@@H](C)C[C@H](OC)[C@H](O)[C@@H](C)/C=C(\C)[C@@H]1OC(N)=O)C2=O [alvespimycin] | 28 | 93 | 69 | – | – | – |
| CC12CC3CC(C)(C1)CC(N)(C3)C2 [memantine] | – | – | – | micromolar range | – | – |
| c1nc2nc(Nc3ccc(N4CCOCC4)cc3)nc(NC3CCCCC3)c2[nH]1 [reversine] | – | – | – | – | 12 | 3.5 |

Second part, led by results:

| IC50 [1, 5] [µM] | IC50 [2, 6] [µM] | IC50 [3] [µM] | SMILES | affinity for NMDA receptor [4] | IC50 [2] [µM] | IC50 [1] [µM] |
| --- | --- | --- | --- | --- | --- | --- |
| 4.3 | 16 | 8.4 | O=C(c1ccc(OCCN2CCCCC2)cc1)c1c(-c2ccc(O)cc2)sc2cc(O)ccc12 [Raloxifene HCl, raloxifene HCl] | – | – | – |
| 10 | 19 | 14 | CC/C(=C(\c1ccccc1)c1ccc(OCCN(C)C)cc1)c1ccccc1 [Tamoxifen, tamoxifen] | – | – | – |
| 6 | 18 | 8.7 | COc1ccc(CCN2CCC(Nc3nc4ccccc4n3Cc3ccc(F)cc3)CC2)cc1 [astemizole] | – | – | – |
